13 compounds from US9951065B2 (Gilead Sciences, Inc., priority 2015, dated 2018) can be followed below.

For the experiment, the target named is T1, IDO1 (Homo sapiens, UniProt P14902).
T1 construct: HeLa cells were treated with a test compound in the presence of IFNγ, which induces IDO1 expression; host or cells: H1-HeLa cells, IDO1 induced with IFNγ
T1 sequence (P14902 whole entry): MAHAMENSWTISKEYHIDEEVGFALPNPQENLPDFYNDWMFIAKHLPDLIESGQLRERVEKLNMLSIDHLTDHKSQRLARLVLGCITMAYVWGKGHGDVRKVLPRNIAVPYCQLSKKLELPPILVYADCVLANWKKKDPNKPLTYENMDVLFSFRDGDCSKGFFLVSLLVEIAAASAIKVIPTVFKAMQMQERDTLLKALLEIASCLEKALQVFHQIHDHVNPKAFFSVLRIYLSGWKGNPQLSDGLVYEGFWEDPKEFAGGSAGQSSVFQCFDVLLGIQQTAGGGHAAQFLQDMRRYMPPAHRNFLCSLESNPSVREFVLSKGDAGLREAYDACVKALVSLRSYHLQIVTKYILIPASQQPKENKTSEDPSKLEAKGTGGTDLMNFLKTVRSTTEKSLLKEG
The experiment in a line: Cell-based (HeLa) assay for measurement of IDO1 inhibition (kynurenine levels in supernatant after IFNγ induction). To be noted: HeLa cells, IFNγ-induced IDO1, kynurenine in supernatant after 48 hour incubation; geometric mean of a minimum of four determinations. In short, it runs like this:
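HeLa cells, 1,250 per well, treated with compound (0.5% DMSO final) plus IFNγ to induce IDO1, for 48 h. Supernatant kynurenine measured by TCA hydrolysis at 60 °C, then p-dimethylaminobenzaldehyde, absorbance 480 nm. EC50 from a four-parameter fit normalized to −/+IFNγ controls; geometric mean of at least four runs.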
Take `O/N=C(\Nc1ccc(F)c(Cl)c1)c1ccnc2nc(NCC3CC3)[nH]c12` [Example 161, N-(3-Chloro-4-fluorophenyl)-2-((cyclopropylmethyl)amino)-N′-hydroxy-1H-imidazo[4,5-b]pyridine-7-carboximidamide]: the half-maximal effective concentration (EC50) was determined as 0.655 µM.
`O/N=C(\Nc1ccc(F)c(Cl)c1)c1ccnc2nc(NC3CC(F)(F)C3)[nH]c12` [Example 162, N-(3-Chloro-4-fluorophenyl)-2-((3,3-difluorocyclobutyl)amino)-N′-hydroxy-1H-imidazo[4,5-b]pyridine-7-carboximidamide] came in with an EC50 of 4.02 µM.
In the case of `CCNc1nc2nccc(/C(=N/O)Nc3ccc(F)c(Cl)c3)c2[nH]1` [Example 163, N-(3-Chloro-4-fluorophenyl)-2-(ethylamino)-N′-hydroxy-1H-imidazo[4,5-b]pyridine-7-carboximidamide] it was 1.08 µM; in that of `O/N=C(\Nc1ccc(F)c(Cl)c1)c1ccnc2nc(NC3CCC3)[nH]c12` [Example 164, N-(3-Chloro-4-fluorophenyl)-2-(cyclobutylamino)-N′-hydroxy-1H-imidazo[4,5-b]pyridine-7-carboximidamide], 0.798 µM.
In the case of `CC(C)Nc1nc2nccc(/C(=N/O)Nc3ccc(F)c(Cl)c3)c2[nH]1` [Example 165, N-(3-Chloro-4-fluorophenyl)-N′-hydroxy-2-(isopropylamino)-1H-imidazo[4,5-b]pyridine-7-carboximidamide] it was 0.705 µM.
`CNc1nc2nccc(/C(=N/O)Nc3cccc(Cl)c3)c2[nH]1` [Example 166, N-(3-Chlorophenyl)-N′-hydroxy-2-(methylamino)-1H-imidazo[4,5-b]pyridine-7-carboximidamide]: a half-maximal effect (EC50) was put at 0.383 µM.
Regarding `CCN(CC)CCNc1nc2nccc(/C(=N/O)Nc3ccc(F)c(Cl)c3)c2[nH]1` [Example 167, N-(3-Chloro-4-fluorophenyl)-2-((2-(diethylamino)ethyl)amino)-N′-hydroxy-1H-imidazo[4,5-b]pyridine-7-carboximidamide], a half-maximal response (EC50) required 2.91 µM.
In the case of `O/N=C(\Nc1ccc(F)c(Cl)c1)c1ccnc2nc(NCCN3CCOCC3)[nH]c12` [Example 168, N-(3-Chloro-4-fluorophenyl)-N′-hydroxy-2-((2-morpholinoethyl)amino)-1H-imidazo[4,5-b]pyridine-7-carboximidamide] it was 1.16 µM; in that of `CN(C)c1nc2nccc(/C(=N/O)Nc3ccc(F)c(Cl)c3)c2[nH]1` [Example 169, N-(3-Chloro-4-fluorophenyl)-2-(dimethylamino)-N′-hydroxy-1H-imidazo[4,5-b]pyridine-7-carboximidamide], 6.27 µM.
In the case of `O/N=C(\Nc1ccc(F)c(C(F)(F)F)c1)c1ccnc2[nH]c(CCl)nc12` [Example 170, 2-(Chloromethyl)-N-(4-fluoro-3-(trifluoromethyl)phenyl)-N′-hydroxy-3H-imidazo[4,5-b]pyridine-7-carboximidamide] it was 1.94 µM; in that of `OCc1nc2c(/C(=N/O)Nc3ccc(F)c(C(F)(F)F)c3)ccnc2[nH]1` [Example 171, N-(4-Fluoro-3-(trifluoromethyl)phenyl)-N′-hydroxy-2-(hydroxymethyl)-3H-imidazo[4,5-b]pyridine-7-carboximidamide], 4 µM.
`CC(O)c1nc2nccc(/C(=N/O)Nc3ccc(F)c(Cl)c3)c2[nH]1` (stereo not shown) [Example 172, N-(3-Chloro-4-fluorophenyl)-N′-hydroxy-2-(1-hydroxyethyl)-1H-imidazo[4,5-b]pyridine-7-carboximidamide] had an EC50 of 3.86 µM.
The compound `O/N=C(\Nc1ccc(F)c(Cl)c1)c1ccnc2nc(C(O)c3ccccc3)[nH]c12` (stereo not shown) [Example 173, N-(3-Chloro-4-fluorophenyl)-N′-hydroxy-2-(hydroxy(phenyl)methyl)-1H-imidazo[4,5-b]pyridine-7-carboximidamide] returned an EC50 of 9.7 µM.

As a reminder, the EC50 is the concentration at which the effect is half-maximal. Lower therefore signals higher potency in that assay.
